Measured values: US20120101093A1, “SUBSTITUTED IMIDAZO[1,2-A]PYRIDINE DERIVATIVES, PHARMACEUTICAL COMPOSITIONS, AND METHODS OF USE AS BETA-SECRETASE INHIBITORS” (HIGH POINT PHARMACEUTICALS, LLC, priority 2009, published 2012)

target: T1, BACE-1 enzyme (Homo sapiens, UniProt P56817); assay: BACE Fluorescence Resonance Energy Transfer (FRET) Assay; assay type: biochemical; details: pH 4-4.5, 30 min pre-incubation, about 1.5 hours reaction
T1 construct: purchased R & D Systems 931AS
Procedure: BACE Fluorescence Resonance Energy Transfer (FRET) Assay
In the following assay, the proteolytic activity of BACE is measured by observing cleavage of a fluorescent group from a peptide substrate containing a rhodamine fluorescent donor and a quenching acceptor.
The inhibitory activity of compounds of Formula (I) may be compared to a statine derived control inhibitor STA200 (MP Biomedical Cat. #STA-200). The cleavage reaction occurs when a BACE-1 substrate (Invitrogen, Cat. #P2986) was added to a reaction mixture containing BACE-1 enzyme (R & D Systems, Cat. #931AS) and allowed to proceed for about 1.5 hours. Fluorescence, used as a marker of BACE activity, is monitored using 540 nm excitation and 585 nm emission wavelengths (Envision, Perkin Elmer).
A typical assay reaction contains BACE-1 enzyme—in assay buffer (50 mM sodium acetate, pH 4-4.5, 0.01% CHAPS (3-[(3-Cholamidopropyl)dimethylammonio]-1-propanesulfonate), 0.0125% TritonX-100, 0.006% EDTA) which is pre-incubated for 30 minutes with test compound in 7.5% DMSO. The reaction is initiated with the addition of BACE-1 substrate in assay buffer and allowed to proceed for about 1.5 hours at room temperature. Assays are conducted in black 384-well microtiter plates and scanned at room temperature using 540 nm excitation and 585 nm emission wavelengths.
In some instances, the percent inhibition at a given concentration is reported instead of the IC50.

T1 sequence (P56817 46-457 limits assumed): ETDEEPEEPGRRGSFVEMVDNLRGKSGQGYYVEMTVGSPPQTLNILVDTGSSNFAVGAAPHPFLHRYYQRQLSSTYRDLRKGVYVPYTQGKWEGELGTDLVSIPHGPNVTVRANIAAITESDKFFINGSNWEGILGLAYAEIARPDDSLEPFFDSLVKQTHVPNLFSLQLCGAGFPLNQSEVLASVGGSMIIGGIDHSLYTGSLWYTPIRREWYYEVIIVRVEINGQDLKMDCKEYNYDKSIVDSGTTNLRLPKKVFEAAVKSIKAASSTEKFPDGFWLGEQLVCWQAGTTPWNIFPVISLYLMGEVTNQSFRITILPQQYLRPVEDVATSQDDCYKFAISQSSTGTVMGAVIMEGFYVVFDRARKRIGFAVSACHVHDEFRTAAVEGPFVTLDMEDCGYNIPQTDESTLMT

SMILES | IC50 [µM]
O=C(Nc1nc2cc(-c3cc(F)cc(Cl)c3)ccc2[nH]1)c1cn2cc(F)ccc2n1 [Example 113, 6-Fluoro-imidazo[1,2-a]pyridine-2-carboxylic acid [5-(3-chloro-5-fluoro-phenyl)-1H-benzoimidazol-2-yl]-amide] | 0.46
CCOC(=O)c1ccn2cc(C(=O)Nc3nc4cc(-c5cc(F)cc(Cl)c5)ccc4[nH]3)nc2c1 [Example 114, 2-[5-(3-Chloro-5-fluoro-phenyl)-1H-benzoimidazol-2-ylcarbamoyl]-imidazo[1,2-a]pyridine-7-carboxylic acid ethyl ester] | 0.29
O=C(Nc1nc2cc(-c3cc(F)cc(Cl)c3)ccc2[nH]1)c1cn2ccccc2n1 [Example 116, Imidazo[1,2-a]pyridine-2-carboxylic acid [5-(3-chloro-5-fluoro-phenyl)-1H-benzoimidazol-2-yl]-amide] | 0.38
Cc1cccc2nc(C(=O)Nc3nc4cc(C5CCCC5)ccc4[nH]3)cn12 [Example 118, 5-Methyl-imidazo[1,2-a]pyridine-2-carboxylic acid (5-cyclopentyl-1H-benzoimidazol-2-yl)-amide] | 0.99
Cc1ccc(-c2ccc3[nH]c(NC(=O)c4cn5c(C)cccc5n4)nc3c2)cc1 [Example 120, 5-Methyl-imidazo[1,2-a]pyridine-2-carboxylic acid (5-p-tolyl-1H-benzoimidazol-2-yl)-amide] | 0.49
O=C(Nc1nc2cc(-c3cccc(C(F)(F)F)c3)ccc2[nH]1)c1cn2c(-c3ccccc3)cccc2n1 [Example 125, 5-Phenyl-imidazo[1,2-a]pyridine-2-carboxylic acid [5-(3-trifluoromethyl-phenyl)-1H-benzoimidazol-2-yl]-amide] | 1.17
CN1CCN(c2cc(F)cn3cc(C(=O)Nc4nc5cc(-c6cc(F)cc(Cl)c6)ccc5[nH]4)nc23)CC1 [Example 128, 6-Fluoro-8-(4-methyl-piperazin-1-yl)-imidazo[1,2-a]pyridine-2-carboxylic acid [5-(3-chloro-5-fluoro-phenyl)-1H-benzoimidazol-2-yl]-amide] | 0.31
CCOc1cc(F)cn2cc(C(=O)Nc3nc4cc(-c5cc(F)cc(Cl)c5)ccc4[nH]3)nc12 [Example 129, 8-Ethoxy-6-fluoro-imidazo[1,2-a]pyridine-2-carboxylic acid [5-(3-chloro-5-fluoro-phenyl)-1H-benzoimidazol-2-yl]-amide] | 0.43
O=C(Nc1nc2cc(-c3cc(F)cc(Cl)c3)ccc2[nH]1)c1cn2cc(F)cc(N3CCNCC3)c2n1 [Example 130, 6-Fluoro-8-piperazin-1-yl-imidazo[1,2-a]pyridine-2-carboxylic acid [5-(3-chloro-5-fluoro-phenyl)-1H-benzoimidazol-2-yl]-amide] | 0.35
CN(C)c1cc(F)cn2cc(C(=O)Nc3nc4cc(-c5cc(F)cc(Cl)c5)ccc4[nH]3)nc12 [Example 131, 8-Dimethylamino-6-fluoro-imidazo[1,2-a]pyridine-2-carboxylic acid [5-(3-chloro-5-fluoro-phenyl)-1H-benzoimidazol-2-yl]-amide] | 1.01
CNc1cc(F)cn2cc(C(=O)Nc3nc4cc(-c5cccc(OC(F)(F)F)c5)ccc4[nH]3)nc12 [Example 132, 6-Fluoro-8-methylamino-imidazo[1,2-a]pyridine-2-carboxylic acid [5-(3-trifluoromethoxy-phenyl)-1H-benzoimidazol-2-yl]-amide] | 1.04
CN(C)c1cc(F)cn2cc(C(=O)Nc3nc4cc(-c5cccc(OC(F)(F)F)c5)ccc4[nH]3)nc12 [Example 133, 8-Dimethylamino-6-fluoro-imidazo[1,2-a]pyridine-2-carboxylic acid [5-(3-trifluoromethoxy-phenyl)-1H-benzoimidazol-2-yl]-amide] | 0.64
O=C(Nc1nc2cc(-c3cccc(OC(F)(F)F)c3)ccc2[nH]1)c1cn2cc(F)cc(N3CCNCC3)c2n1 [Example 134, 6-Fluoro-8-piperazin-1-yl-imidazo[1,2-a]pyridine-2-carboxylic acid [5-(3-trifluoromethoxy-phenyl)-1H-benzoimidazol-2-yl]-amide] | 0.29
CN1CCN(c2cc(F)cn3cc(C(=O)Nc4nc5cc(-c6cccc(OC(F)(F)F)c6)ccc5[nH]4)nc23)CC1 [Example 135, 6-Fluoro-8-(4-methyl-piperazin-1-yl)-imidazo[1,2-a]pyridine-2-carboxylic acid [5-(3-trifluoromethoxy-phenyl)-1H-benzoimidazol-2-yl]-amide] | 0.2
COc1cc(F)cn2cc(C(=O)Nc3nc4cc(-c5cccc(OC(F)(F)F)c5)ccc4[nH]3)nc12 [Example 136, 6-Fluoro-8-methoxy-imidazo[1,2-a]pyridine-2-carboxylic acid [5-(3-trifluoromethoxy-phenyl)-1H-benzoimidazol-2-yl]-amide] | 0.23
CCOc1cccc2nc(C(=O)Nc3nc4cc(-c5cccc(C(F)(F)F)c5)ccc4[nH]3)cn12 [Example 137, 5-Ethoxy-imidazo[1,2-a]pyridine-2-carboxylic acid [5-(3-trifluoromethyl-phenyl)-1H-benzoimidazol-2-yl]-amide] | 1.39
COCCNc1cc(F)cn2cc(C(=O)Nc3nc4cc(-c5cc(F)cc(Cl)c5)ccc4[nH]3)nc12 [Example 138, 6-Fluoro-8-(2-methoxy-ethylamino)-imidazo[1,2-a]pyridine-2-carboxylic acid [5-(3-chloro-5-fluoro-phenyl)-1H-benzoimidazol-2-yl]-amide] | 1.27

The next lines start with the values.

IC50 [µM] | SMILES
0.48 | COCCCNc1cc(F)cn2cc(C(=O)Nc3nc4cc(-c5cc(F)cc(Cl)c5)ccc4[nH]3)nc12 [Example 139, 6-Fluoro-8-(3-methoxy-propylamino)-imidazo[1,2-a]pyridine-2-carboxylic acid [5-(3-chloro-5-fluoro-phenyl)-1H-benzoimidazol-2-yl]-amide]
0.25 | COCCOc1cc(F)cn2cc(C(=O)Nc3nc4cc(-c5cc(F)cc(Cl)c5)ccc4[nH]3)nc12 [Example 140, 6-Fluoro-8-(2-methoxy-ethoxy)-imidazo[1,2-a]pyridine-2-carboxylic acid [5-(3-chloro-5-fluoro phenyl)-1H-benzoimidazol-2-yl]-amide]
0.66 | CN(C)CCOc1cc(F)cn2cc(C(=O)Nc3nc4cc(-c5cc(F)cc(Cl)c5)ccc4[nH]3)nc12 [Example 141, 8-(2-Dimethylamino-ethoxy)-6-fluoro-imidazo[1,2-a]pyridine-2-carboxylic acid [5-(3-chloro-5-fluoro-phenyl)-1H-benzoimidazol-2-yl]-amide]
0.34 | CN(C)CCOc1cc(Cl)cn2cc(C(=O)Nc3nc4cc(-c5cc(F)cc(Cl)c5)ccc4[nH]3)nc12 [Example 142, 6-Chloro-8-(2-dimethylamino-ethoxy)-imidazo[1,2-a]pyridine-2-carboxylic acid [5-(3-chloro-5-fluoro-phenyl)-1H-benzoimidazol-2-yl]-amide]
1.06 | O=C(Nc1nc2cc(-c3cc(F)cc(Cl)c3)ccc2[nH]1)c1cn2cc(Cl)cc(Cl)c2n1 [Example 143, 6,8-Dichloro-imidazo[1,2-a]pyridine-2-carboxylic acid [5-(3-chloro-5-fluoro-phenyl)-1H-benzoimidazol-2-yl]-amide]
0.55 | Cc1cc(Cl)c2nc(C(=O)Nc3nc4cc(-c5cc(F)cc(Cl)c5)ccc4[nH]3)cn2c1 [Example 144, 8-Chloro-6-methyl-imidazo[1,2-a]pyridine-2-carboxylic acid [5-(3-chloro-5-fluoro-phenyl)-1H-benzoimidazol-2-yl]-amide]
0.52 | O=C(Nc1nc2cc(-c3cc(F)cc(Cl)c3)ccc2[nH]1)c1cn2cc(F)cc(OCCN3CCOCC3)c2n1 [Example 145, 6-Fluoro-8-(2-morpholin-4-yl-ethoxy)-imidazo[1,2-a]pyridine-2-carboxylic acid [5-(3-chloro-5-fluoro-phenyl)-1H-benzoimidazol-2-yl]-amide]
0.32 | Cc1cc(OCCN(C)C)c2nc(C(=O)Nc3nc4cc(-c5cc(F)cc(Cl)c5)ccc4[nH]3)cn2c1 [Example 146, 8-(2-Dimethylamino-ethoxy)-6-methyl-imidazo[1,2-a]pyridine-2-carboxylic acid [5-(3-chloro-5-fluoro-phenyl)-1H-benzoimidazol-2-yl]-amide]
0.41 | O=C(Nc1nc2cc(-c3cc(F)cc(Cl)c3)ccc2[nH]1)c1cn2cc(F)cc(OCCN3CCCCC3)c2n1 [Example 147, 6-Fluoro-8-(2-piperidin-1-yl-ethoxy)-imidazo[1,2-a]pyridine-2-carboxylic acid [5-(3-chloro-5-fluoro-phenyl)-1H-benzoimidazol-2-yl]-amide]
0.39 | CN1CCN(CCOc2cc(F)cn3cc(C(=O)Nc4nc5cc(-c6cc(F)cc(Cl)c6)ccc5[nH]4)nc23)CC1 [Example 148, 6-Fluoro-8-[2-(4-methyl-piperazin-1-yl)-ethoxy]-imidazo[1,2-a]pyridin-2-carboxylic acid [5-(3-chloro-5-fluoro-phenyl)-1H-benzoimidazol-2-yl]-amide]
0.57 | Cc1cc(OCCN2CCCCC2)c2nc(C(=O)Nc3nc4cc(-c5cc(F)cc(Cl)c5)ccc4[nH]3)cn2c1 [Example 149, 6-Methyl-8-(2-piperidin-1-yl-ethoxy)-imidazo[1,2-a]pyridine-2-carboxylic acid [5-(3-chloro-5-fluoro-phenyl)-1H-benzoimidazol-2-yl]-amide]
